This assay concerns the target T1, Angiotensin-converting enzyme (Rattus norvegicus, UniProt P47820).
T1 sequence (P47820 whole entry): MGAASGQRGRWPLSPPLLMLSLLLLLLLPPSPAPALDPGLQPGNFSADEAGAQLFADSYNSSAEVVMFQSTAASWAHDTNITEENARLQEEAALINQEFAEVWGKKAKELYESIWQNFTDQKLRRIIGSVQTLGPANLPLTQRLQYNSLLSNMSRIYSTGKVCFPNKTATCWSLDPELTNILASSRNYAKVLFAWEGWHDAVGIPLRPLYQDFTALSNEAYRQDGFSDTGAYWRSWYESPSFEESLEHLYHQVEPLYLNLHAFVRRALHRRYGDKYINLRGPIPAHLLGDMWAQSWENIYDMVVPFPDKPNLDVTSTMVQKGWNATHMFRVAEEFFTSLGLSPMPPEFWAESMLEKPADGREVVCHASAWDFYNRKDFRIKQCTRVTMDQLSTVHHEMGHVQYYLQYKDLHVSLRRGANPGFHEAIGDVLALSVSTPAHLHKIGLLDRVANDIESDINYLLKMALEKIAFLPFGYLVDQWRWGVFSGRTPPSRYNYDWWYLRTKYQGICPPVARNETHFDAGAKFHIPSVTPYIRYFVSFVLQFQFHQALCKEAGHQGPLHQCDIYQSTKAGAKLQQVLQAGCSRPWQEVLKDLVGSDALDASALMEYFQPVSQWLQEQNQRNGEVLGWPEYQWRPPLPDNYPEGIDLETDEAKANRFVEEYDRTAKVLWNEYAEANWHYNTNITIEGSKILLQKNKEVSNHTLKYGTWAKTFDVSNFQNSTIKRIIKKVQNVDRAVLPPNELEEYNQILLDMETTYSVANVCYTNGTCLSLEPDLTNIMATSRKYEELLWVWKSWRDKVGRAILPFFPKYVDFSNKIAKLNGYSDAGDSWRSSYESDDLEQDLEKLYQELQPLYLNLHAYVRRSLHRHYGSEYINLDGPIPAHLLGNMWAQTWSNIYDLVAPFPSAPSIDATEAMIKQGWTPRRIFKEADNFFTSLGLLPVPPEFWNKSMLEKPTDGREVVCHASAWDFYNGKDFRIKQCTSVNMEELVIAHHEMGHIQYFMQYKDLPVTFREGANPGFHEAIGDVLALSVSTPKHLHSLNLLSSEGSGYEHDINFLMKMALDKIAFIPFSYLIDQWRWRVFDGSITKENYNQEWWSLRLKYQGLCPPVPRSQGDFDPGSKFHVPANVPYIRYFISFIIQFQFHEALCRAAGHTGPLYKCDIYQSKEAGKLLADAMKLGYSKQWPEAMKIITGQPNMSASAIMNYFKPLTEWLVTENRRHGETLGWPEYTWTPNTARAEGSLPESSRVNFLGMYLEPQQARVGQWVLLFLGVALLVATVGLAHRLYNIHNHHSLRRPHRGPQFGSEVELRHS
The experiment in a line: In vivo inhibitory activity against Angiotensin I converting enzyme was evaluated in renal hypertensive rats. It counts as organism-based. As to conditions: read-out: I50.

The structures appear in SMILES notation.

As for `O=C(O)[C@@H]1CCCN1C(=O)CCS`, the IC50 is 200 nM. On to `C[C@@H](CS)C(=O)N1CCC[C@H]1c1nn[nH]n1`, for which the IC50 was determined as 260 nM. In the case of `O=C(CCS)N1CCCC1P(=O)(O)O` (centres undefined), the IC50 turned out to be 1700 nM. Consider `C[C@@H](CS)C(=O)N1CCC[C@H]1C(=O)NO`, for which the IC50 was 22 nM.

These data come from ChEMBL document CHEMBL1122915, “Synthesis and biological activity of carboxylic acid replacement analogues of the potent angiotensin converting enzyme inhibitor 5(S)-benzamido-4-oxo-6-phenylhexanoyl-L-proline” (J Med Chem, 1985).
